{"source": "paper PMC3944389", "about": "“Differential Neuroprotective Effects of 5′-Deoxy-5′-Methylthioadenosine” (PLoS ONE, 2014)", "key": {"[1]": {"experiment": "Parallel artificial membrane permeability assay (PAMPA), BBB model, passive diffusion", "assay_type": "in vitro ADME", "protocol": "The PAMPA assay was used to determine the capacity of compounds to cross a blood brain barrier (BBB) model by passive diffusion, measuring the effective permeability of the compounds at an initial concentration of 200 µM. The buffer solution was prepared from a concentrated commercial solution (Pion, Billerica, MA, US) according to the manufacturer's instructions and the pH was adjusted to 7.4 with 0.5 M NaOH. The compound of interest was dissolved in the buffer solution (200 µM), the PAMPA sandwich was separated and the donor well was filled with 195 µL of the compound of interest. The acceptor plate and donor plate were brought together, with the underside of the membrane in contact with the buffer. An 4 µL aliquot of the phospholipid mixture (20 mg/ml) in dodecane was added to the filter of each well, and then 200 µL of buffer solution was added to each acceptor well. The plate was covered and incubated for 4 h at RT in a saturated humidity atmosphere with agitation and with 25 µm of an unstirred water layer in the Gut-Box (Pion). After 4 h, a 150 µL/well sample from the donor plate and a 150 µL/well sample from the acceptor plate were transferred to HPLC vials. Then, 100 µL from acceptor well, 5 µL from the donor well and 5 µL from the t0 samples were injected into an HPLC reverse-phase symmetry C18 column (150 mm×4.6 mm×5 µm, 100 Å; Waters). Transport was confirmed by HPLC mass spectrometry and matrix-assisted laser desorption/ionization time-of-flight (MALDI-TOF) spectrometry to ensure the compound had maintained its integrity. The phospholipid mixture used was a porcine polar brain lipid extract composed of 12.6% phosphatidylcholine (PC), 33.1% phosphatidylethanolamine (PE), 18.5% phosphatidylserine (PS), 4.1% phosphatidylinositol (PI), 0.8% phosphatidic acid and 30.9% of other compounds."}, "[2]": {"tested_on": "Sprague-Dawley rats, pilocarpine-induced status epilepticus", "experiment": "Pilocarpine-induced status epilepticus (SE) model", "assay_type": "in vivo, rat", "protocol": "Young adult (175–200 g) male Sprague-Dawley rats from Charles River (Wilmington, MA, US) were divided into four MTA treatment groups, with 9–11 rats per group. In group A, rats were subjected to pilocarpine-induced status epilepticus (SE) as described previously. Following 90 min of continuous seizure activity, SE was stopped by administering a single dose of diazepam (10 mg/kg). The rats were then injected daily for 3 days with either the vehicle alone (2% DMSO in H2O), injecting a volume of body weight x 3.3 (a similar volume as for the MTA treated groups), or MTA (30 mg/kg). Rats were euthanized on day 4 after SE under anesthesia by transcardiac perfusion with 4% paraformaldehyde (PFA) in phosphate-buffered saline. The brains were removed, postfixed in 4% PFA, cryoprotected in 30% sucrose, frozen, and sectioned for histology. In group B, the rats received the same treatment as those in group A (vehicle or MTA 30 mg/kg) except that the rats were perfused on day 30 after SE and a 0,37% sulphide fixative was used for subsequent Timm staining. In group C, the rats were only treated with MTA (30 mg/kg) or the vehicle for 2 days and on the third day, the rats were again subjected to pilocarpine-induced SE. The animals were then treated once daily with MTA (30 mg/kg) or vehicle for a further 3 days, and they were anesthetized and euthanized 4 days after SE. […]\nMouse and rat coronal sections were mounted on glass slides in a 0.2% solution of gelatin in 0.05 M Trizma base [pH 7.6] […] To evaluate sprouting of the zinc-containing mossy fibers in the dentate gyrus inner molecular layer, Timm-stained sections were analyzed by an examiner blinded to experimental condition. […] Twelve samples of pixel density/section were measured in the inner molecular layer using NIH ImageJ, 5 from the lower blade, 5 from the upper blade and 2 from the apex. The average background level (mean of 12 samples/section) was subtracted and a mean pixel density calculated for each animal (n = 4–5/group). […]"}}, "note": "Marks after values point to notes of the source that are not given here."}
{"substance": "5′-deoxy-5′-methylthioadenosine [MTA]", "values": [{"measurement": "Membrane retention", "setting": "[1]", "value": "negligible"}, {"measurement": "effective permeability in PAMPA (in words)", "setting": "[1]", "value": "low to intermediate effective permeability"}, {"measurement": "% Membrane retention", "setting": "[1]; 200 µM, pH 7.4, 4 h at RT", "value": 0, "unit": "%"}, {"measurement": "Pe x 10^−6 (cm/s)", "setting": "[1]; 200 µM, pH 7.4, 4 h at RT", "value": "0.15 ^* x 10^−6 cm/s"}, {"measurement": "mossy fiber sprouting (Timm staining)", "setting": "[2]; MTA 30 mg/kg pre-SE or post-SE, 30 days after SE", "value": "No difference"}, {"measurement": "neurodegeneration and neuronal loss in hippocampal areas (NeuN immunoreactivity)", "setting": "[2]; MTA 30 mg/kg/day before or after SE, early (3-5 days) and late (30 days) time points", "value": "reduced the neurodegeneration and neuronal loss"}, {"measurement": "neuronal loss in the CA3 and CA1 hippocampal areas (stereological counting of NeuN-immunoreactive cells)", "setting": "[2]; MTA 30 mg/kg/day prior to SE, 30 days after SE", "value": "significant reductions"}]}
